From patent US9695155B2, “Herbicidal substituted pyrimidinyloxy benzene compounds” (E. I. DU PONT DE NEMOURS AND COMPANY, priority 2013, dated 2017)

Columns and labels:
oilseed rape = assay: Test C postemergence; format: in vivo, Brassica napus; conditions: for Plant response rating (0 to 100), Oilseed Rape: 0 is no effect, 100 is complete control; for Oilseed Rape plant response rating: 31 g ai/ha, 13 to 15 days; for Oilseed Rape plant response rating / Plant response rating, Oilseed Rape: scale 0 to 100 (0 no effect, 100 complete control)
How it was run: (§1)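 Injury was assessed visually against controls 13 to 15 days after application, with 0 meaning no effect and 100 full control; missing entries are shown as a dash. Preemergence sprays hit seeded loam–sand soil, postemergence sprays hit 1- to 4-leaf plants.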

kochia = assay: Test C postemergence; format: in vivo, Kochia scoparia; conditions: for Plant response rating (0 to 100), Kochia: 0 is no effect, 100 is complete control; for Kochia plant response rating: 31 g ai/ha, 13 to 15 days; for Kochia plant response rating / Plant response rating, Kochia: scale 0 to 100 (0 no effect, 100 complete control)
How it was run: as §1

large (Lg) crabgrass = assay: Test C postemergence; format: in vivo, Digitaria sanguinalis; conditions: for Plant response rating (0 to 100), Crabgrass, Large: 0 is no effect, 100 is complete control; for Crabgrass, Large plant response rating: 31 g ai/ha, 13 to 15 days; for Crabgrass, Large plant response rating / Plant response rating, Crabgrass, Large: scale 0 to 100 (0 no effect, 100 complete control)
How it was run: as §1

yellow nutsedge = assay: Test C postemergence; format: in vivo, Cyperus esculentus; conditions: for Plant response rating (0 to 100), Nutsedge, Yellow: 0 is no effect, 100 is complete control; for Nutsedge, Yellow plant response rating: 31 g ai/ha, 13 to 15 days; for Nutsedge, Yellow plant response rating / Plant response rating, Nutsedge, Yellow: scale 0 to 100 (0 no effect, 100 complete control)
How it was run: as §1

morningglory [1] = assay: Test C postemergence; format: in vivo, Ipomoea coccinea; conditions: for Plant response rating (0 to 100), Morningglory: 0 is no effect, 100 is complete control; for Morningglory plant response rating: 31 g ai/ha, 13 to 15 days; for Morningglory plant response rating / Plant response rating, Morningglory: scale 0 to 100 (0 no effect, 100 complete control)
How it was run: as §1

morningglory [2] = assay: Test A preemergence; format: in vivo, Ipomoea spp.; conditions: for Morningglory plant response rating (0 to 100 scale): 125 g ai/ha; for Morningglory plant response rating: 500 g ai/ha, 0 to 100 scale where 0 is no effect and 100 is complete control
How it was run: (§2)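 Scoring: eye-based comparison with untreated controls, 0 for no effect through 100 for complete control, at about day 10. Treatments: directed soil spray preemergence; foliar spray postemergence on 2–10 cm plants at the one- to two-leaf stage. Medium: loam soil with sand.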

wheat [3] = assay: Test A preemergence; format: in vivo, Triticum aestivum; conditions: for Wheat plant response rating (0 to 100 scale): 125 g ai/ha; for Wheat plant response rating: 500 g ai/ha, 0 to 100 scale where 0 is no effect and 100 is complete control
How it was run: as §2

corn = assay: Test A preemergence; format: in vivo, Zea mays; conditions: 0 to 100 scale where 0 is no effect and 100 is complete control; for Plant response rating, Corn: 125 g ai/ha; for Corn plant response rating: 500 g ai/ha
How it was run: as §2

johnsongrass = assay: Test C postemergence; format: in vivo, Sorghum halepense; conditions: for Plant response rating (0 to 100), Johnsongrass: 0 is no effect, 100 is complete control; for Johnsongrass plant response rating: 31 g ai/ha, 13 to 15 days; for Johnsongrass plant response rating / Plant response rating, Johnsongrass: scale 0 to 100 (0 no effect, 100 complete control)
How it was run: as §1

sedge, umbrella = assay: Test B flooded paddy test; format: in vivo, Cyperus difformis; conditions: Flood, 250 g ai/ha; 0 to 100 scale where 0 is no effect and 100 is complete control
How it was run: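 Scores from 0 (no effect) to 100 (complete control) are visual comparisons with controls, taken 13 to 15 days after compound was applied into floodwater 3 cm deep around 2-leaf plants.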

morningglory [4] = assay: Test A postemergence; format: in vivo, Ipomoea spp.; conditions: 0 to 100 scale where 0 is no effect and 100 is complete control; for Morningglory plant response rating: 125 g ai/ha; for Plant response rating, Morningglory: 500 g ai/ha
How it was run: as §2

barnyardgrass [5] = assay: Test C postemergence; format: in vivo, Echinochloa crus-galli; conditions: for Plant response rating (0 to 100), Barnyardgrass: 0 is no effect, 100 is complete control; for Barnyardgrass plant response rating: 31 g ai/ha, 13 to 15 days; for Barnyardgrass plant response rating / Plant response rating, Barnyardgrass: scale 0 to 100 (0 no effect, 100 complete control)
How it was run: as §1

barnyardgrass [6] = assay: Test A preemergence; format: in vivo, Echinochloa crus-galli; conditions: 0 to 100 scale where 0 is no effect and 100 is complete control; for Plant response rating, Barnyardgrass: 125 g ai/ha; for Barnyardgrass plant response rating: 500 g ai/ha
How it was run: as §2

wheat [7] = assay: Test A postemergence; format: in vivo, Triticum aestivum; conditions: 0 to 100 scale where 0 is no effect and 100 is complete control; for Wheat plant response rating: 125 g ai/ha; for Plant response rating, Wheat: 500 g ai/ha
How it was run: as §2

blackgrass = assay: Test C postemergence; format: in vivo, Alopecurus myosuroides; conditions: for Plant response rating (0 to 100), Blackgrass: 0 is no effect, 100 is complete control; for Blackgrass plant response rating: 31 g ai/ha, 13 to 15 days; for Blackgrass plant response rating / Plant response rating, Blackgrass: scale 0 to 100 (0 no effect, 100 complete control)
How it was run: as §1

[8] = 125 g ai/ha, postemergence, visual rating

O=Cc1cccc(Oc2ncc(I)cn2)c1-n1cc(Br)cn1 [Compound 172]
90: Plant response rating, Morningglory (morningglory [4])
30: Plant response rating, Kochia (kochia; Postemergence, 62 g ai/ha)
80: Morningglory plant response rating (morningglory [4])
20: Morningglory plant response rating (morningglory [1]; postemergence, visual rating) | Blackgrass plant response rating (blackgrass; postemergence, visual rating)
10: Plant response rating, Morningglory (morningglory [1]; Postemergence, 62 g ai/ha) | Johnsongrass plant response rating (johnsongrass; postemergence, visual rating) | Plant response rating, Johnsongrass (johnsongrass; Postemergence, 62 g ai/ha)
0: Plant response rating (0 to 100), Oilseed Rape (oilseed rape; 8 g ai/ha, postemergence) | Plant response rating (0 to 100), Oilseed Rape (oilseed rape; 16 g ai/ha, postemergence) | Oilseed Rape plant response rating (oilseed rape; postemergence, visual rating) | Plant response rating, Oilseed Rape (oilseed rape; Postemergence, 62 g ai/ha) | Plant response rating (0 to 100), Kochia (kochia; 8 g ai/ha, postemergence) | Plant response rating (0 to 100), Kochia (kochia; 16 g ai/ha, postemergence) | Kochia plant response rating (kochia; postemergence, visual rating) | Plant response rating (0 to 100), Crabgrass, Large (large (Lg) crabgrass; 8 g ai/ha, postemergence) | Plant response rating (0 to 100), Crabgrass, Large (large (Lg) crabgrass; 16 g ai/ha, postemergence) | Crabgrass, Large plant response rating (large (Lg) crabgrass; postemergence, visual rating) | Plant response rating, Crabgrass, Large (large (Lg) crabgrass; Postemergence, 62 g ai/ha) | Plant response rating (0 to 100), Nutsedge, Yellow (yellow nutsedge; 8 g ai/ha, postemergence) | Plant response rating (0 to 100), Nutsedge, Yellow (yellow nutsedge; 16 g ai/ha, postemergence) | Plant response rating (0 to 100), Morningglory (morningglory [1]; 8 g ai/ha, postemergence) | Plant response rating (0 to 100), Morningglory (morningglory [1]; 16 g ai/ha, postemergence) | Morningglory plant response rating (0 to 100 scale) (morningglory [2]) | Morningglory plant response rating (morningglory [2]) | Wheat plant response rating (0 to 100 scale) (wheat [3]) | Wheat plant response rating (wheat [3]) | Plant response rating, Corn (corn) | Corn plant response rating (corn) | Plant response rating (0 to 100), Johnsongrass (johnsongrass; 8 g ai/ha, postemergence) | Plant response rating (0 to 100), Johnsongrass (johnsongrass; 16 g ai/ha, postemergence) | Plant response rating, Sedge, Umbrella (sedge, umbrella) | Plant response rating (0 to 100), Barnyardgrass (barnyardgrass [5]; 8 g ai/ha, postemergence) | Plant response rating, Barnyardgrass (barnyardgrass [6]) | Barnyardgrass plant response rating (barnyardgrass [6]) | Wheat plant response rating (wheat [7]) | Plant response rating, Wheat (wheat [7]) | Plant response rating (0 to 100), Blackgrass (blackgrass; 8 g ai/ha, postemergence) | Plant response rating (0 to 100), Blackgrass (blackgrass; 16 g ai/ha, postemergence) | Plant response rating, Blackgrass (blackgrass; Postemergence, 62 g ai/ha)
5: Nutsedge, Yellow plant response rating (yellow nutsedge; postemergence, visual rating) | Plant response rating, Nutsedge, Yellow (yellow nutsedge; Postemergence, 62 g ai/ha) | Plant response rating (0 to 100), Barnyardgrass (barnyardgrass [5]; 16 g ai/ha, postemergence) | Barnyardgrass plant response rating (barnyardgrass [5]; postemergence, visual rating) | Plant response rating, Barnyardgrass (barnyardgrass [5]; Postemergence, 62 g ai/ha)

Fc1cccc(Oc2ncc(Cl)cn2)c1-n1cc(Cl)cn1 [Compound 177]
60: Plant response rating (0 to 100), Oilseed Rape (oilseed rape; 16 g ai/ha, postemergence)
50: Wheat plant response rating (wheat [3]) | Corn plant response rating (corn)
0: Plant response rating (0 to 100), Nutsedge, Yellow (yellow nutsedge; 16 g ai/ha, postemergence) | Wheat plant response rating (0 to 100 scale) (wheat [3]) | Plant response rating, Corn (corn) | Plant response rating (0 to 100), Blackgrass (blackgrass; 16 g ai/ha, postemergence)
20: Plant response rating (0 to 100), Morningglory (morningglory [1]; 16 g ai/ha, postemergence) | Morningglory plant response rating (0 to 100 scale) (morningglory [2]) | Wheat plant response rating (wheat [7])
35: Plant response rating, Blackgrass (blackgrass; [8])
80: Oilseed Rape plant response rating (oilseed rape; postemergence, visual rating) | Plant response rating, Morningglory (morningglory [1]; Postemergence, 62 g ai/ha) | Morningglory plant response rating (morningglory [2])
10: Plant response rating, Crabgrass, Large (large (Lg) crabgrass; [8]) | Plant response rating, Crabgrass, Large (large (Lg) crabgrass; Postemergence, 62 g ai/ha) | Plant response rating, Nutsedge, Yellow (yellow nutsedge; [8]) | Morningglory plant response rating (morningglory [1]; postemergence, visual rating) | Plant response rating, Johnsongrass (johnsongrass; [8]) | Plant response rating, Barnyardgrass (barnyardgrass [5]; [8]) | Plant response rating, Barnyardgrass (barnyardgrass [5]; Postemergence, 62 g ai/ha)
85: Plant response rating, Morningglory (morningglory [1]; [8])
5: Plant response rating (0 to 100), Crabgrass, Large (large (Lg) crabgrass; 16 g ai/ha, postemergence) | Crabgrass, Large plant response rating (large (Lg) crabgrass; postemergence, visual rating) | Nutsedge, Yellow plant response rating (yellow nutsedge; postemergence, visual rating) | Plant response rating, Nutsedge, Yellow (yellow nutsedge; Postemergence, 62 g ai/ha) | Plant response rating (0 to 100), Johnsongrass (johnsongrass; 16 g ai/ha, postemergence) | Johnsongrass plant response rating (johnsongrass; postemergence, visual rating) | Plant response rating, Johnsongrass (johnsongrass; Postemergence, 62 g ai/ha) | Plant response rating (0 to 100), Barnyardgrass (barnyardgrass [5]; 16 g ai/ha, postemergence) | Barnyardgrass plant response rating (barnyardgrass [5]; postemergence, visual rating) | Blackgrass plant response rating (blackgrass; postemergence, visual rating) | Plant response rating, Blackgrass (blackgrass; Postemergence, 62 g ai/ha)
100: Plant response rating, Sedge, Umbrella (sedge, umbrella) | Plant response rating, Morningglory (morningglory [4]) | Barnyardgrass plant response rating (barnyardgrass [6])
70: Plant response rating (0 to 100), Kochia (kochia; 16 g ai/ha, postemergence) | Kochia plant response rating (kochia; postemergence, visual rating) | Plant response rating, Barnyardgrass (barnyardgrass [6])
95: Plant response rating, Kochia (kochia; [8])
90: Plant response rating, Oilseed Rape (oilseed rape; [8]) | Plant response rating, Oilseed Rape (oilseed rape; Postemergence, 62 g ai/ha) | Plant response rating, Kochia (kochia; Postemergence, 62 g ai/ha) | Morningglory plant response rating (morningglory [4]) | Plant response rating, Wheat (wheat [7])
